Reference: patent publication US6335168B1 (priority 1998, dated 2002)

Test system: A118G variant human mu opioid receptor
Type: cell-based
Conditions: GIRK activation in oocytes

Substance: β-endorphin
- difference of EC50 values between the A118G variant and the most common mu opioid receptors: about three
